Source: patent US9309242B2, “Substituted pyrido[2,3-b]pyrazines as FGFR kinase inhibitors” (priority 2011, dated 2016)
Structures can show the parent of a compound that is named as a salt. Where two headings read alike, the source gives them in different places.

How the values were obtained:
FGFR2 (h) = FGFR2 (h) (Homo sapiens, UniProt P21802); experiment: FGFR2 (enzymatic assay), TR-FRET; type: biochemical; settings: enzymatic assay, read-out: FGFR 2 pIC50 (converted)
Method: In a final reaction volume of 30 μL, FGFR2 (h) (150 ng/ml) was incubated with 50 mM HEPES pH 7.5, 6 mM MnCl2, 1 mM DTT, 0.1 mM Na3VO4, 0.01% Triton-X-100, 500 nM Btn-Flt3 and 0.4 μM ATP in the presence of compound (1% DMSO final).

[1] = system: Ba/F3-KDR-transfected cells; experiment: Ba/F3-KDR (plus IL3) cellular proliferation assay, counterscreen with 10 ng/ml murine IL3; type: cell-based; settings: plus IL3 (10 ng/ml murine IL3, counterscreen)
Method: (§1) Ba/F3-KDR (Minus IL3 or Plus IL3) (Cellular Proliferation Assay)
(§2) In a 384 well plate, 100 n1 of compound dilution in DMSO was sprayed before adding 50 μl cell culture medium (phenol red free RPMI-1640, 10% FBS, 2 mM L-Glutamine and 50 μg/ml Gentamycin) containing 20000 cells per well of Ba/F3-KDR-transfected cells. Cells were put in an incubator at 37° C. and 5% CO2. After 24 hours, 10 μl of Alamar Blue solution (0.5 mM K3Fe(CN)6, 0.5 mM K4Fe(CN)6, 0.15 mM Resazurin and 100 mM Phosphate Buffer) was added to the wells, incubated for 4 hours at 37° C. and 5% CO2 before RFU's (Relative Fluorescence Units) (ex. 540 nm., em. 590 nm.) were measured in a fluororescence plate reader.
(§3) As a counterscreen the same experiment was performed in the presence of 10 ng/ml murine IL3.

[2] = target: Ba/F3-FGFR4-transfected cells (Homo sapiens, UniProt P22455); experiment: Ba/F3-FGFR4 cellular proliferation assay, Alamar Blue; type: cell-based
Sequence of Ba/F3-FGFR4-transfected cells (P22455 whole entry, change not shown): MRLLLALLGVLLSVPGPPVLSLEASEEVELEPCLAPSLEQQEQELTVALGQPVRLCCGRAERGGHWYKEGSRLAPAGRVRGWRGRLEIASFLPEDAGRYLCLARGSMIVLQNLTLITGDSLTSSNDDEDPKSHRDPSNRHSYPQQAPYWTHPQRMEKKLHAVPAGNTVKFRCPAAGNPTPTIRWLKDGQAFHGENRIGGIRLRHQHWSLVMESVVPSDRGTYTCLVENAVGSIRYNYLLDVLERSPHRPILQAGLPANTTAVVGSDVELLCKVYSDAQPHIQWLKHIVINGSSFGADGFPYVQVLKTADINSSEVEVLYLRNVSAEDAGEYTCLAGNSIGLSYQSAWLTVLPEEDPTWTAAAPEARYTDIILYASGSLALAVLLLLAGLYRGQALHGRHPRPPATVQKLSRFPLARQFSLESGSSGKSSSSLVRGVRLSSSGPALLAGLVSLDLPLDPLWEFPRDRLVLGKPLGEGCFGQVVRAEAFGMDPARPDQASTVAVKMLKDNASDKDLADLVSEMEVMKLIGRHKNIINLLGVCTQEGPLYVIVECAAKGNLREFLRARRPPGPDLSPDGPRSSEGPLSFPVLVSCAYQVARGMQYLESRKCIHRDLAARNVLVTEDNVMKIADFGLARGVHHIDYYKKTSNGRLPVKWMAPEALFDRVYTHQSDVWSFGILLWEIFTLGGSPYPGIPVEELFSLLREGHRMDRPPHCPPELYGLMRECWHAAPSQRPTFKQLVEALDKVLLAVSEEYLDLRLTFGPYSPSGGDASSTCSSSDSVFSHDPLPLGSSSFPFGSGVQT
Method: Ba/F3-FGFR4 (Cellular Proliferation Assay)
as §2, with “Ba/F3-FGFR4-transfected” for “Ba/F3-KDR-transfected”

KDR (h) = KDR (h) (Homo sapiens, UniProt P35968); experiment: KDR (VEGFR2) (enzymatic assay), TR-FRET; type: biochemical; settings: read-out: VEGFR 2 (KDR) pIC50 (converted)
Method: KDR (VEGFR2) (Enzymatic Assay)
In a final reaction volume of 30 μL, KDR (h) (150 ng/ml) was incubated with 50 mM HEPES pH 7.5, 6 mM MnCl2, 1 mM DTT, 0.1 mM Na3VO4, 0.01% Triton-X-100, 500 nM Btn-Flt3 and 3 μM ATP in the presence of compound (1% DMSO final). After incubation for 120 minutes at room temperature the reaction was stopped with 2.27 nM EU-anti P-Tyr, 7 mM EDTA, 31.25 nM SA-XL-665 and 0.02% BSA which was present for 60 minutes at room temperature. Time-Resolved Fluorescence Resonance Energy Transfer (TR-FRET) signal (ex340 nm. Em 620 nm, em 655 nm) was measured afterwards and results are expressed in RFU (Relative Fluorescence Units).

[3] = target: T1, Ba/F3-KDR-transfected cells (Homo sapiens, UniProt P35968); experiment: Ba/F3-KDR (minus IL3) cellular proliferation assay, Alamar Blue; type: cell-based
T1 construct: BAF3-KDR (MIN IL3) pIC50; other: minus IL3
T1 sequence (P35968 whole entry, change not shown): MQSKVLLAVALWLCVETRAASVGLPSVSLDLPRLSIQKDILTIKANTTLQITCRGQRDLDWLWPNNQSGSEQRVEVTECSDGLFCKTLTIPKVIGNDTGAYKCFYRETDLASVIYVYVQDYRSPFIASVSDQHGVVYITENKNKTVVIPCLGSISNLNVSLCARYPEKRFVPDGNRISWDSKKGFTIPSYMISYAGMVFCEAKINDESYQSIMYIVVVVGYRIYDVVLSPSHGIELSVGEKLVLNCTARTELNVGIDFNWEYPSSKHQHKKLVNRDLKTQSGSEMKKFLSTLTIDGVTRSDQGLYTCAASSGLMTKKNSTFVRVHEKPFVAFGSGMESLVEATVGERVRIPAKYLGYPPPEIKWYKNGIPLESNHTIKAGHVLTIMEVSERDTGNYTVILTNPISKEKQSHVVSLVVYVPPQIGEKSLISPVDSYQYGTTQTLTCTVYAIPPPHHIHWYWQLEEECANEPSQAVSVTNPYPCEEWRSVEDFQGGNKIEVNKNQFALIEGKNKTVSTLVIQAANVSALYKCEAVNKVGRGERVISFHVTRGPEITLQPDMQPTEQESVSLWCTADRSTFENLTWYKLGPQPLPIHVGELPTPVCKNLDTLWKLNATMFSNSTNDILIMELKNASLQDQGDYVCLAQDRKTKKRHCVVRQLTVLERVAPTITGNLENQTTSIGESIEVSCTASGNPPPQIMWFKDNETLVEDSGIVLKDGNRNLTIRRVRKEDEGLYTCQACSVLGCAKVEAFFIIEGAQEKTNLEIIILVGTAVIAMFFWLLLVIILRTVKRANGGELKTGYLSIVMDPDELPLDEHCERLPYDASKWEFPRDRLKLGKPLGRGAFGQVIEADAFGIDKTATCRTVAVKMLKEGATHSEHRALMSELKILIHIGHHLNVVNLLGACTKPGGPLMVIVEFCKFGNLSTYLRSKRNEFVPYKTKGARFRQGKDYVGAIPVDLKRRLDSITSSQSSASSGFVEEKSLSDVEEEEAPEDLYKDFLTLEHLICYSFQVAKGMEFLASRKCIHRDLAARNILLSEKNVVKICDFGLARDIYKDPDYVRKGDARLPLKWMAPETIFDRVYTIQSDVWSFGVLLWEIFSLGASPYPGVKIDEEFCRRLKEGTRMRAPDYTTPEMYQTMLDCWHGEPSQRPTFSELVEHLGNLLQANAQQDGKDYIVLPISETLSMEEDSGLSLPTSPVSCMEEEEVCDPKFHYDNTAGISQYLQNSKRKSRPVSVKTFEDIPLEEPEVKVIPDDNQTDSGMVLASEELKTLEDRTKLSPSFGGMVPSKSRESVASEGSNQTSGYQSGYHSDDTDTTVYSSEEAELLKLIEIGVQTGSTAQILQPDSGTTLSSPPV
Method: as §1
as §2, with “reader. […]” for “reader.”

[4] = system: Ba/F3-FGFR3-transfected cells; experiment: Ba/F3-FGFR3 (plus IL3) cellular proliferation assay, counterscreen with 10 ng/ml murine IL3; type: cell-based; settings: plus IL3 (10 ng/ml murine IL3, counterscreen)
Method: (§4) Ba/F3-FGFR3 (Minus IL3 or Plus IL3) (Cellular Proliferation Assay)
as §2, with “nl” for “n1”, “Ba/F3-FGFR3-transfected” for “Ba/F3-KDR-transfected”
as §3

[5] = target: T2, Ba/F3-FGFR3-transfected cells (Homo sapiens, UniProt P22607); experiment: Ba/F3-FGFR3 (minus IL3) cellular proliferation assay, Alamar Blue; type: cell-based
T2 construct: BAF3-FGFR3 (MIN IL3) pIC50; other: minus IL3
T2 sequence (P22607 whole entry, change not shown): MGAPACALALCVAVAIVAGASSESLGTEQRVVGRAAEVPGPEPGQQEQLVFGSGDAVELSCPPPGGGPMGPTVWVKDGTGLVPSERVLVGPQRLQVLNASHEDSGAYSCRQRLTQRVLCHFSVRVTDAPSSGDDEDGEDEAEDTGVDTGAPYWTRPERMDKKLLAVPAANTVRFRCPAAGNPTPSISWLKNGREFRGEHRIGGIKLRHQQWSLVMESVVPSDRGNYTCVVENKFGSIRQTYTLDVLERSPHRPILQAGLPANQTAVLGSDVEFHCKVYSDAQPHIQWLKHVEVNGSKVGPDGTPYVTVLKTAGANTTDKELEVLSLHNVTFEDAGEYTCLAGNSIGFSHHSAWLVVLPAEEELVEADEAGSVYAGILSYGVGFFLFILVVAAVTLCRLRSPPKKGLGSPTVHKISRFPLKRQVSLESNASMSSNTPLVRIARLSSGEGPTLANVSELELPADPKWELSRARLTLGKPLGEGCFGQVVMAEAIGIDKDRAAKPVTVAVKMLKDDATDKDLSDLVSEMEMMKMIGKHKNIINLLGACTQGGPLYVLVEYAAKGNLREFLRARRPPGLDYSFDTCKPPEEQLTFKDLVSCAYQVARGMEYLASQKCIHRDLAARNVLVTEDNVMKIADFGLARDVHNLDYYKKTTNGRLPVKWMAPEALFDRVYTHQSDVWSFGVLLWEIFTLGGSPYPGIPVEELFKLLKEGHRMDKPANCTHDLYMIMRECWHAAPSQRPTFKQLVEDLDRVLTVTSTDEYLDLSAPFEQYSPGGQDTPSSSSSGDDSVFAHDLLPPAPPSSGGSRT
Method: as §4
as §2, with “nl” for “n1”, “Ba/F3-FGFR3-transfected” for “Ba/F3-KDR-transfected”, “reader. […]” for “reader.”

FGFR3 (h) = FGFR3 (h) (Homo sapiens, UniProt P22607); experiment: FGFR3 (enzymatic assay), TR-FRET; type: biochemical; settings: read-out: FGFR 3 pIC50 (converted)
Source text: Time-Resolved Fluorescence Resonance Energy Transfer (TR-FRET) signal (ex340 nm.

[6] = system: Ba/F3-FGFR1-transfected cells; experiment: Ba/F3-FGFR1 (plus IL3) cellular proliferation assay, counterscreen with 10 ng/ml murine IL3; type: cell-based; settings: plus IL3 (10 ng/ml murine IL3, counterscreen)
Method: (§5) Ba/F3-FGFR1 (Minus IL3 or Plus IL3) (Cellular Proliferation Assay)
as §2, with “nl” for “n1”, “Ba/F3-FGFR1-transfected” for “Ba/F3-KDR-transfected”
as §3

FGFR4 (h) = FGFR4 (h) (Homo sapiens, UniProt P22455); experiment: FGFR4 (enzymatic assay), TR-FRET; type: biochemical; settings: FGFR 4 pIC50, enzymatic assay
FGFR1 (h) = FGFR1 (h) (Homo sapiens, UniProt P11362); experiment: FGFR1 (enzymatic assay), TR-FRET; type: biochemical; settings: read-out: FGFR 1 pIC50 (converted)
Sequence of FGFR1 (h) (P11362 22-822): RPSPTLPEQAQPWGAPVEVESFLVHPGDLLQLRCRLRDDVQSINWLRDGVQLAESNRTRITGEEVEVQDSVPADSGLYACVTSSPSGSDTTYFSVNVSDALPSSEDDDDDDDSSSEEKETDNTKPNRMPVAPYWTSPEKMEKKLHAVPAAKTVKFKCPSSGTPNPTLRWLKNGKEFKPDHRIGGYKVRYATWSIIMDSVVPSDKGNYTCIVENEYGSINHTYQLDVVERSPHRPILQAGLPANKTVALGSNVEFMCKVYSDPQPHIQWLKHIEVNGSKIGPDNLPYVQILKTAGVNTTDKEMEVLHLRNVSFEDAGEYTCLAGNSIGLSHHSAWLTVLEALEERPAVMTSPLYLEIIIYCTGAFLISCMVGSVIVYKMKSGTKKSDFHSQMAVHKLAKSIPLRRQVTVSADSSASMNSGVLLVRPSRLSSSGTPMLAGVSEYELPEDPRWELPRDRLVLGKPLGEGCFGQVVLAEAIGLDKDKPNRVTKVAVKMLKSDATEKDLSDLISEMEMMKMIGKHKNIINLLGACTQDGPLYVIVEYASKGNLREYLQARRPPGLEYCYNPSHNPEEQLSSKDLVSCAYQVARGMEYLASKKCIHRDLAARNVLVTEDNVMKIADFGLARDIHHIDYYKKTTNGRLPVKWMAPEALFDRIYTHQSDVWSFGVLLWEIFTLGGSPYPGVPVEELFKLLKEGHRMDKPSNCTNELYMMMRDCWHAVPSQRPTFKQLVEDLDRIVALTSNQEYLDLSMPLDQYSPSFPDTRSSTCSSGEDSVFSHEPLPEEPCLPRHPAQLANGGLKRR

[7] = target: T3, Ba/F3-FGFR1-transfected cells (Homo sapiens, UniProt P11362); experiment: Ba/F3-FGFR1 (minus IL3) cellular proliferation assay, Alamar Blue; type: cell-based
T3 construct: BAF3-FGFR1 (MIN IL3) pIC50; other: minus IL3
T3 sequence (P11362 whole entry, change not shown): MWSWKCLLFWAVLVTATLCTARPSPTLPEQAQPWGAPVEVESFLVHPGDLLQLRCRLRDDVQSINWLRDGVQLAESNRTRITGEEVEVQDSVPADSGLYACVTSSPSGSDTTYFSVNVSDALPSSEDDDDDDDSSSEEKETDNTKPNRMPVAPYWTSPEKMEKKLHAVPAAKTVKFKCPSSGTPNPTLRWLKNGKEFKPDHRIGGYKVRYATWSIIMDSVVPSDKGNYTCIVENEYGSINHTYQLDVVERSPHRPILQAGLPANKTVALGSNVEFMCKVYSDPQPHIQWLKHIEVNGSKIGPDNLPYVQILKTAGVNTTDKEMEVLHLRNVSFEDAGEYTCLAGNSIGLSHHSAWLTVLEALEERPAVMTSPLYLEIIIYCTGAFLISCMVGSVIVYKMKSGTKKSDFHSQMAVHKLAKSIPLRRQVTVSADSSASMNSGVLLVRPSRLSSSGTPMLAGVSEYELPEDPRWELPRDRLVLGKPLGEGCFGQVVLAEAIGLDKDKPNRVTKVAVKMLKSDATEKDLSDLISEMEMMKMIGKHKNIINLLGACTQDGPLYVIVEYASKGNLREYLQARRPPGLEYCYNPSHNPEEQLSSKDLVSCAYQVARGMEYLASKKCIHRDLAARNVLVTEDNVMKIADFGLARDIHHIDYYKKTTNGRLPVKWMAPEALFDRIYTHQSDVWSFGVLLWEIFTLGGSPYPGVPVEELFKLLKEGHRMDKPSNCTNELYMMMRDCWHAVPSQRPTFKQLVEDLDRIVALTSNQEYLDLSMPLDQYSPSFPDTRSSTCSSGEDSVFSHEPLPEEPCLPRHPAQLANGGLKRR
Method: as §5
as §2, with “nl” for “n1”, “Ba/F3-FGFR1-transfected” for “Ba/F3-KDR-transfected”

[8] = average values if tested multiple times

## COc1cc(OC)cc(N(CC(O)C(F)(F)F)c2ccc3ncc(-c4cnn(C)c4)nc3n2)c1 (single isomer, unassigned) [Compound 34]
FGFR2 (h); [8]
  IC50: 4.57 nM
[1]
  BAF3-KDR (PLUS IL3) pIC50: <5
[2]
  BAF3-FGFR4 pIC50: 6.64
KDR (h); [8]
  IC50: 331 nM
[3]
  BAF3-KDR (MIN IL3) pIC50: <5
[4]
  BAF3-FGFR3 (PLUS IL3) pIC50: <5
[5]
  BAF3-FGFR3 (MIN IL3) pIC50: 6.97
FGFR3 (h); [8]
  IC50: 1.35 nM
[6]
  BAF3-FGFR1 (PLUS IL3) pIC50: <5
FGFR4 (h); [8]
  IC50: 7.08 nM
FGFR1 (h); [8]
  IC50: 3.55 nM
[7]
  BAF3-FGFR1 (MIN IL3) pIC50: 7.18

## COCC(O)CN(c1ccc2ncc(-c3cnn(C)c3)nc2n1)c1cc(OC)cc(OC)c1F (single isomer, unassigned) [Compound 59]
FGFR2 (h); [8]
  IC50: 1.82 nM
[1]
  BAF3-KDR (PLUS IL3) pIC50: <5
[2]
  BAF3-FGFR4 pIC50: 7.19
KDR (h); [8]
  IC50: 25.1 nM
[3]
  BAF3-KDR (MIN IL3) pIC50: 5.73
[4]
  BAF3-FGFR3 (PLUS IL3) pIC50: <5
[5]
  BAF3-FGFR3 (MIN IL3) pIC50: 7.71
FGFR3 (h); [8]
  IC50: 1.23 nM
[6]
  BAF3-FGFR1 (PLUS IL3) pIC50: <5
FGFR4 (h); [8]
  IC50: 2.19 nM
FGFR1 (h); [8]
  IC50: ~1.78 nM
[7]
  BAF3-FGFR1 (MIN IL3) pIC50: 7.60

## COc1cc(OC)c(F)c(N(CC(O)COC(C)C)c2ccc3ncc(-c4cnn(C)c4)nc3n2)c1 (single isomer, unassigned) [Compound 78]
FGFR2 (h); [8]
  IC50: 2.75 nM
[1]
  BAF3-KDR (PLUS IL3) pIC50: <5
[2]
  BAF3-FGFR4 pIC50: 7.03
KDR (h); [8]
  IC50: 15.1 nM
[3]
  BAF3-KDR (MIN IL3) pIC50: 6.13
[4]
  BAF3-FGFR3 (PLUS IL3) pIC50: <5
[5]
  BAF3-FGFR3 (MIN IL3) pIC50: 7.70
FGFR3 (h); [8]
  IC50: 2.34 nM
[6]
  BAF3-FGFR1 (PLUS IL3) pIC50: <5
FGFR4 (h); [8]
  IC50: 2.51 nM
FGFR1 (h); [8]
  IC50: 2.4 nM
[7]
  BAF3-FGFR1 (MIN IL3) pIC50: 7.59

## COc1cc(OC)c(F)c(N(CC(O)COC(C)C)c2ccc3ncc(-c4cnn(C)c4)nc3n2)c1 (single isomer, unassigned) [Compound 79]
FGFR2 (h); [8]
  IC50: 2.95 nM
[1]
  BAF3-KDR (PLUS IL3) pIC50: <5
[2]
  BAF3-FGFR4 pIC50: 7.28
KDR (h); [8]
  IC50: 25.7 nM
[3]
  BAF3-KDR (MIN IL3) pIC50: 5.73
[4]
  BAF3-FGFR3 (PLUS IL3) pIC50: <5
[5]
  BAF3-FGFR3 (MIN IL3) pIC50: 7.63
FGFR3 (h); [8]
  IC50: 1.66 nM
[6]
  BAF3-FGFR1 (PLUS IL3) pIC50: <5
FGFR4 (h); [8]
  IC50: 2 nM
FGFR1 (h); [8]
  IC50: 2.34 nM
[7]
  BAF3-FGFR1 (MIN IL3) pIC50: 7.58

## COc1ccc(Cl)c(N(CC2CCC(=O)N2)c2ccc3ncc(-c4cnn(C)c4)nc3n2)c1Cl (single isomer, unassigned) [Compound 91]
FGFR2 (h)
  IC50: 145 nM
[1]
  BAF3-KDR (PLUS IL3) pIC50: <5
[2]
  BAF3-FGFR4 pIC50: <5
KDR (h)
  IC50: 741 nM
[3]
  BAF3-KDR (MIN IL3) pIC50: <5
[4]
  BAF3-FGFR3 (PLUS IL3) pIC50: <5
[5]
  BAF3-FGFR3 (MIN IL3) pIC50: 5.17
FGFR3 (h)
  IC50: 138 nM
[6]
  BAF3-FGFR1 (PLUS IL3) pIC50: <5
FGFR4 (h)
  IC50: > 1000 nM
FGFR1 (h)
  IC50: 219 nM
[7]
  BAF3-FGFR1 (MIN IL3) pIC50: 5.13

## COc1cc(OC)c(F)c(N(CC2CCOC2)c2ccc3ncc(-c4cnn(C)c4)nc3n2)c1 (single isomer, unassigned) [Compound 171]
FGFR2 (h)
  IC50: 2.57 nM
[1]
  BAF3-KDR (PLUS IL3) pIC50: <5
[2]
  BAF3-FGFR4 pIC50: 6.55
KDR (h)
  IC50: ~14.5 nM
[3]
  BAF3-KDR (MIN IL3) pIC50: 5.63
[4]
  BAF3-FGFR3 (PLUS IL3) pIC50: <5
[5]
  BAF3-FGFR3 (MIN IL3) pIC50: 7.28
FGFR3 (h)
  IC50: 1.55 nM
[6]
  BAF3-FGFR1 (PLUS IL3) pIC50: <5
FGFR4 (h)
  IC50: 3.72 nM
FGFR1 (h)
  IC50: 3.55 nM
[7]
  BAF3-FGFR1 (MIN IL3) pIC50: 7.10

## COc1cc(OC)c(F)c(N(CC2CCOC2)c2ccc3ncc(-c4cnn(C)c4)nc3n2)c1 (single isomer, unassigned) [Compound 172]
FGFR2 (h)
  IC50: 4.47 nM
[1]
  BAF3-KDR (PLUS IL3) pIC50: <5
[2]
  BAF3-FGFR4 pIC50: 6.33
KDR (h)
  IC50: 45.7 nM
[3]
  BAF3-KDR (MIN IL3) pIC50: 5.35
[4]
  BAF3-FGFR3 (PLUS IL3) pIC50: <5
[5]
  BAF3-FGFR3 (MIN IL3) pIC50: ~7.06
FGFR3 (h)
  IC50: 3.02 nM
[6]
  BAF3-FGFR1 (PLUS IL3) pIC50: <5
FGFR4 (h)
  IC50: ~15.8 nM
FGFR1 (h)
  IC50: 3.72 nM
[7]
  BAF3-FGFR1 (MIN IL3) pIC50: 6.54

## COc1cc(OC)c(F)c(N(Cc2ncc[nH]2)c2ccc3ncc(-c4cnn(C)c4)nc3n2)c1 [23-Sulfate salt]
FGFR2 (h); [8]
  IC50: 2.09 nM
[1]
  BAF3-KDR (PLUS IL3) pIC50: <5
[2]
  BAF3-FGFR4 pIC50: 7.88
KDR (h); [8]
  IC50: 7.94 nM
[3]
  BAF3-KDR (MIN IL3) pIC50: 6.51
[4]
  BAF3-FGFR3 (PLUS IL3) pIC50: <5
[5]
  BAF3-FGFR3 (MIN IL3) pIC50: ~8.64
FGFR3 (h); [8]
  IC50: 1.12 nM
[6]
  BAF3-FGFR1 (PLUS IL3) pIC50: <5
FGFR4 (h); [8]
  IC50: 1.26 nM
FGFR1 (h); [8]
  IC50: 0.589 nM
[7]
  BAF3-FGFR1 (MIN IL3) pIC50: 8.94
